Measurements reported in BindingDB's records for doi:10.1016/j.bmcl.2010.10.094 (Universit&#224, 2010).

Target: carbonic anhydrase XII (human)
Test: Inhibition of human recombinant CA12 catalytic domain by stopped-flow CO2 hydration method

SMILES | Ki [nM]
CCCOc1cc2oc(=O)ccc2cc1C(C)=O [6-acetyl-7-propoxy-2H-chromen-2-one] | > 100000
CC(=O)c1c(OCCC23CC4CC(CC(C4)C2)C3)ccc2ccc(=O)oc12 [8-Acetyl-7-(2-adamantan-1-yl-ethoxy)-chromen-2-one] | 31.5
CCOc1ccc2ccc(=O)oc2c1C(=O)CC [7-ethoxy-8-propionyl-2H-chromen-2-one] | 33.2

Now from value to compound:

Ki [nM] | SMILES
22.4 | CC(=O)c1c(OCc2ccccc2)ccc2ccc(=O)oc12 [8-acetyl-7-(benzyloxy)-2H-chromen-2-one]
1 | CCOc1ccc2ccc(=O)oc2c1C(C)=O [8-acetyl-7-ethoxy-2H-chromen-2-one]
0.98 | CCCOc1ccc2ccc(=O)oc2c1C(C)=O [8-acetyl-7-propoxy-2H-chromen-2-one]
